Assay [1] concerns the target Tryptase, from human lung. Put plainly: Enzymatic assay, tryptase. The note with it: for IC50: read-out: Tryptase IC50.
In assay [2] the target is T1, CathepsinG, from human neutrophils (Homo sapiens, UniProt P08311).
T1 sequence (P08311 21-244): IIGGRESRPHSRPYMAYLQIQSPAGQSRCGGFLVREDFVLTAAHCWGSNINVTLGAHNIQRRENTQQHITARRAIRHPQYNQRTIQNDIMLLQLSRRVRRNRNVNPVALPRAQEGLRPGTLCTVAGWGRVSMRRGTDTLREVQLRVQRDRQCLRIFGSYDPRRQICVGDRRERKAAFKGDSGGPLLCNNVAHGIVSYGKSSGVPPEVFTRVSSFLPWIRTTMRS
Put plainly: Enzymatic assay, cathepsin G. The note with it: Cathepsin G IC50.

Assay [3] has as its target Trypsin, from human pancreas (Homo sapiens, UniProt P07477). Put plainly: Enzymatic assay, trypsin.
Assay [4] deals with T2, Elastase from human neutrophils (Homo sapiens, UniProt P08246).
T2 sequence (P08246 30-267): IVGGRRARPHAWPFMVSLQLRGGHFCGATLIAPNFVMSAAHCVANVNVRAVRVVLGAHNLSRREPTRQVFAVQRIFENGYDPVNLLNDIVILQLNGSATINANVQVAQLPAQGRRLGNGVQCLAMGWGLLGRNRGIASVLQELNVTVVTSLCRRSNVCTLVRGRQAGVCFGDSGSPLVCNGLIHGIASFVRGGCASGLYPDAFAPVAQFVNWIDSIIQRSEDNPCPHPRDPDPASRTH
Put plainly: Enzymatic assay, elastase.

Where a SMILES comes first, the peptide text is derived from it. Some results are limits rather than exact numbers.

As a reminder, the IC50 is the concentration needed to halve the response being measured. As to `CC[C@H](C)[C@@H]1NC(=O)[C@@H]2CCCN2C(=O)[C@H]2CCCN2C(=O)[C@H](CCCNC(=N)N)NC(=O)[C@@H]2CSSC[C@H](NC1=O)C(=O)N[C@@H]([C@@H](C)O)C(=O)N[C@@H](CCCCN)C(=O)N[C@@H](CO)C(=O)N[C@@H](CC(C)C)C(=O)N1CCC[C@H]1C(=O)N1CCC[C@H]1C(=O)N[C@@H](CCCNC(=N)N)C(=O)N2` [Ex. 185] (HELM PEPTIDE1{I.C.T.K.S.L.P.P.R.C.R.[dP].P}$PEPTIDE1,PEPTIDE1,2:R3-10:R3|PEPTIDE1,PEPTIDE1,1:R1-13:R2$$$V2.0), the figures for the IC50 in assay [1], in assay [2] and in assay [3] were 14 nM, 514 nM and 126 nM, respectively. Consider `CC[C@H](C)[C@@H]1NC(=O)[C@@H]2CCCN2C(=O)[C@H]2CCCN2C(=O)[C@H](CCCNC(=N)N)NC(=O)[C@@H]2CSSC[C@H](NC1=O)C(=O)N[C@@H]([C@@H](C)O)C(=O)N[C@@H](CCCCN)C(=O)N[C@@H](CO)C(=O)N[C@@H](CC(C)C)C(=O)N1CCC[C@H]1C(=O)N1CCC[C@H]1C(=O)N[C@@H]([C@@H](C)O)C(=O)N2` [Ex. 189] (HELM PEPTIDE1{I.C.T.K.S.L.P.P.T.C.R.[dP].P}$PEPTIDE1,PEPTIDE1,2:R3-10:R3|PEPTIDE1,PEPTIDE1,1:R1-13:R2$$$V2.0), for which the IC50 in assay [1] was under 100 nM; in assay [2] it was 164 nM; in assay [3] it was 39 nM. The compound `CC[C@H](C)[C@@H]1NC(=O)[C@@H]2CCCN2C(=O)[C@@H]2CCCN2C(=O)[C@H](CC(=O)O)NC(=O)[C@H](CO)NC(=O)[C@H](CCCCN)NC(=O)[C@H]([C@@H](C)O)NC(=O)[C@@H]2CSSC[C@H](NC1=O)C(=O)N[C@@H](CC(N)=O)C(=O)N1CCC[C@@H]1C(=O)N1CCC[C@H]1C(=O)N[C@@H](CCc1ccccc1)C(=O)N2` [Ex. 27] (HELM PEPTIDE1{[O=C([C@H](CCc1ccccc1)N[*:1])[*:2]].C.T.K.S.D.P.P.I.C.N.[dP].P}$PEPTIDE1,PEPTIDE1,2:R3-10:R3|PEPTIDE1,PEPTIDE1,1:R1-13:R2$$$V2.0) registered an IC50 in assay [2] of 48 nM.

In the case of `C[C@@H](O)[C@@H]1NC(=O)[C@@H]2CSSC[C@H](NC(=O)[C@H](CC3CCCCC3)NC(=O)[C@@H]3CCCN3C(=O)[C@@H]3CCCN3C(=O)[C@H](CC(=O)O)NC(=O)[C@H](CO)NC(=O)[C@H](CCCCN)NC1=O)C(=O)N[C@@H](Cc1ccc(O)cc1)C(=O)N1CCC[C@@H]1C(=O)N1CCC[C@H]1C(=O)N[C@@H](C1CCCCC1)C(=O)N2` [Ex. 66] (HELM PEPTIDE1{[O=C([C@@H](N[*:1])C1CCCCC1)[*:2]].C.T.K.S.D.P.P.[Cha].C.Y.[dP].P}$PEPTIDE1,PEPTIDE1,2:R3-10:R3|PEPTIDE1,PEPTIDE1,1:R1-13:R2$$$V2.0), in assay [2], the IC50 worked out at 48 nM. For the compound `CC[C@H](C)[C@@H]1NC(=O)[C@@H]2CCCN2C(=O)[C@@H]2CCCN2C(=O)[C@H](CC(=O)O)NC(=O)[C@H](CO)NC(=O)[C@H](CCCCN)NC(=O)[C@H]([C@@H](C)O)NC(=O)[C@@H]2CSSC[C@H](NC1=O)C(=O)N[C@@H](CO)C(=O)N1CCC[C@@H]1C(=O)N[C@@H](CC(C)C)C(=O)N[C@@H](Cc1ccccc1)C(=O)N2` [Ex. 74] (HELM PEPTIDE1{C.S.[dP].L.F.C.T.K.S.D.P.P.I}$PEPTIDE1,PEPTIDE1,1:R3-6:R3|PEPTIDE1,PEPTIDE1,1:R1-13:R2$$$V2.0), the “Trypsin at 100 μM %” value in assay [3] was 86%. In assay [2], `CC[C@H](C)[C@@H]1NC(=O)[C@@H]2CCCN2C(=O)[C@@H]2CCCN2C(=O)[C@H](CC(=O)O)NC(=O)[C@H](CO)NC(=O)[C@H](CCCCN)NC(=O)[C@H]([C@@H](C)O)NC(=O)[C@@H]2CSSC[C@H](NC1=O)C(=O)N[C@@H](CC(=O)O)C(=O)N1CCC[C@@H]1C(=O)N1CCC[C@H]1C(=O)N[C@@H](CCc1ccccc1)C(=O)N2` [Ex. 29] (HELM PEPTIDE1{[O=C([C@H](CCc1ccccc1)N[*:1])[*:2]].C.T.K.S.D.P.P.I.C.D.[dP].P}$PEPTIDE1,PEPTIDE1,2:R3-10:R3|PEPTIDE1,PEPTIDE1,1:R1-13:R2$$$V2.0) came in with a half-inhibitory concentration (IC50) of 42 nM.

In assay [2], `C[C@@H](O)[C@@H]1NC(=O)[C@@H]2CSSC[C@H](NC(=O)[C@H](CC3CCCCC3)NC(=O)[C@@H]3CCCN3C(=O)[C@@H]3CCCN3C(=O)[C@H](CC(=O)O)NC(=O)[C@H](CO)NC(=O)[C@H](CCCCN)NC1=O)C(=O)N[C@@H](CCCNC(=N)N)C(=O)N1CCC[C@@H]1C(=O)N1CCC[C@H]1C(=O)N[C@@H](C1CCCCC1)C(=O)N2` [Ex. 71] (HELM PEPTIDE1{[O=C([C@@H](N[*:1])C1CCCCC1)[*:2]].C.T.K.S.D.P.P.[Cha].C.R.[dP].P}$PEPTIDE1,PEPTIDE1,2:R3-10:R3|PEPTIDE1,PEPTIDE1,1:R1-13:R2$$$V2.0) returned an IC50 of 70 nM. Turning to `CC[C@H](C)[C@@H]1NC(=O)[C@@H]2CCCN2C(=O)[C@@H]2CCCN2C(=O)[C@H](CC(=O)O)NC(=O)[C@H](CO)NC(=O)[C@H](CCCCN)NC(=O)[C@H]([C@@H](C)O)NC(=O)[C@@H]2CSSC[C@H](NC1=O)C(=O)N[C@@H](CO)C(=O)N[C@H](CC(=O)O)C(=O)N1CCC[C@H]1C(=O)N[C@@H](Cc1ccccc1)C(=O)N2` [Ex. 46] (HELM PEPTIDE1{F.C.T.K.S.D.P.P.I.C.S.[dD].P}$PEPTIDE1,PEPTIDE1,2:R3-10:R3|PEPTIDE1,PEPTIDE1,1:R1-13:R2$$$V2.0), in assay [1] (at 100 μM), the “Tryptase at 100 μM %” value came to 44.1%. `CC[C@H](C)[C@@H]1NC(=O)[C@@H]2CCCN2C(=O)[C@@H]2CCCN2C(=O)[C@H](CC(=O)O)NC(=O)[C@H](CO)NC(=O)[C@H](CCCCN)NC(=O)[C@H]([C@@H](C)O)NC(=O)[C@@H]2CSSC[C@H](NC1=O)C(=O)N[C@@H](CO)C(=O)N1CCC[C@@H]1C(=O)N1CCC[C@H]1C(=O)N[C@@H](Cc1c[nH]c3ccccc13)C(=O)N2` [Ex. 61] (HELM PEPTIDE1{W.C.T.K.S.D.P.P.I.C.S.[dP].P}$PEPTIDE1,PEPTIDE1,2:R3-10:R3|PEPTIDE1,PEPTIDE1,1:R1-13:R2$$$V2.0) came in with an IC50 in assay [2] of 72 nM. Regarding `CCCC[C@@H]1NC(=O)[C@@H]2CCCN2C(=O)[C@H]2CCCN2C(=O)[C@H](CC(N)=O)NC(=O)[C@@H]2CSSC[C@H](NC1=O)C(=O)N[C@@H]([C@@H](C)O)C(=O)N[C@@H](CCCCN)C(=O)N[C@@H](CO)C(=O)N[C@@H](CC(=O)O)C(=O)N1CCC[C@H]1C(=O)N1CCC[C@H]1C(=O)N[C@@H]([C@@H](C)CC)C(=O)N2` [Ex. 41] (HELM PEPTIDE1{[Nle].C.T.K.S.D.P.P.I.C.N.[dP].P}$PEPTIDE1,PEPTIDE1,2:R3-10:R3|PEPTIDE1,PEPTIDE1,1:R1-13:R2$$$V2.0), the half-inhibitory concentration (IC50) in assay [2] was found to be 49 nM. Regarding `CC[C@H](C)[C@@H]1NC(=O)[C@@H]2CCCN2C(=O)[C@@H]2CCCN2C(=O)[C@H](CC(=O)O)NC(=O)[C@H](CO)NC(=O)[C@H](CCCCN)NC(=O)[C@H]([C@@H](C)O)NC(=O)[C@@H]2CSSC[C@H](NC1=O)C(=O)N[C@@H](CO)C(=O)N1CCC[C@@H]1C(=O)N1CCC[C@H]1C(=O)N[C@@H](Cc1ccc(N)cc1)C(=O)N2` [Ex. 9] (HELM PEPTIDE1{[Nc1ccc(C[C@H](N[*:1])C(=O)[*:2])cc1].C.T.K.S.D.P.P.I.C.S.[dP].P}$PEPTIDE1,PEPTIDE1,2:R3-10:R3|PEPTIDE1,PEPTIDE1,1:R1-13:R2$$$V2.0), the “Elastase at 100 μM %” value in assay [4] (at 100 μM (stated in cell instead of IC50)) amounted to 4.1 at %. Also, the IC50 in assay [2] turned out to be 105 nM. In assay [3], the “Trypsin at 100 μM %” value is 88.1%. With `CC[C@H](C)[C@@H]1NC(=O)[C@@H]2CCCN2C(=O)[C@@H]2CCCN2C(=O)[C@H](CC(=O)O)NC(=O)[C@H](CO)NC(=O)[C@H](CCCCN)NC(=O)[C@H]([C@@H](C)O)NC(=O)[C@@H]2CSSC[C@H](NC1=O)C(=O)N[C@@H](CO)C(=O)N1CCC[C@@H]1C(=O)N[C@@H](CC(C)C)C(=O)N[C@@H](Cc1ccccc1)C(=O)N2` [Ex. 51] (HELM PEPTIDE1{C.S.[dP].L.F.C.T.K.S.D.P.P.I}$PEPTIDE1,PEPTIDE1,1:R3-6:R3|PEPTIDE1,PEPTIDE1,1:R1-13:R2$$$V2.0), the figures for the IC50 in assay [4] (Elastase IC50) and in assay [2] were over 100000 nM and 91 nM, respectively. In assay [2], `CC[C@H](C)[C@@H]1NC(=O)[C@@H]2CCCN2C(=O)[C@@H]2CCCN2C(=O)[C@H](CC(=O)O)NC(=O)[C@H](CO)NC(=O)[C@H](CCCCN)NC(=O)[C@H]([C@@H](C)O)NC(=O)[C@@H]2CSSC[C@H](NC1=O)C(=O)N[C@@H](Cc1ccc(O)cc1)C(=O)N1CCC[C@@H]1C(=O)N1CCC[C@H]1C(=O)N[C@@H](Cc1ccc(N)cc1)C(=O)N2` [Ex. 32] (HELM PEPTIDE1{[Nc1ccc(C[C@H](N[*:1])C(=O)[*:2])cc1].C.T.K.S.D.P.P.I.C.Y.[dP].P}$PEPTIDE1,PEPTIDE1,2:R3-10:R3|PEPTIDE1,PEPTIDE1,1:R1-13:R2$$$V2.0) returned an IC50 of 52 nM. `CC[C@H](C)[C@@H]1NC(=O)[C@@H]2CCCN2C(=O)[C@@H]2CCCN2C(=O)[C@H](CC(=O)O)NC(=O)[C@H](CO)NC(=O)[C@H](CCCCN)NC(=O)[C@H]([C@@H](C)O)NC(=O)[C@@H]2CSSC[C@H](NC1=O)C(=O)N[C@@H]([C@@H](C)O)C(=O)N1CCC[C@@H]1C(=O)N1CCC[C@H]1C(=O)N[C@@H](CC1CCCCC1)C(=O)N2` [Ex. 34] (HELM PEPTIDE1{[Cha].C.T.K.S.D.P.P.I.C.T.[dP].P}$PEPTIDE1,PEPTIDE1,2:R3-10:R3|PEPTIDE1,PEPTIDE1,1:R1-13:R2$$$V2.0): the IC50 in assay [2] amounted to 56 nM.

Values taken from patent US8658604B2, “Template-fixed beta-hairpin peptidomimetics with protease inhibitory activity” (Polyphor Ltd, priority 2005, dated 2014).
